Source: patent US20100087476A1, “PHARMACEUTICAL COMPOUNDS” (Biovail Laboratories International (Barbados) S.R.L., priority 2008, published 2010)

Columns and labels:
Type in all cases: in vivo, BALB/c mice
OVA-sensitised mice [1] = experiment: Unrestrained whole body plethysmography (PenH) during methacholine exposure, chicken ovalbumin parenteral sensitization model of asthma
From the text: (§1) An animal model of asthma was used in this study that included parenteral sensitisation of mice with chicken ovalbumin (OVA) together with a suitable adjuvant (Alum). Ovalbumin is widely used as an antigen as a result of its availability and ability to induce a good Th2-type immune response due to lack of any previous exposure to this antigen. Repeated aerosol exposure to ovalbumin post-sensitisation triggers airway changes leading to hyper-responsiveness, similar to that seen in asthma. These changes can be measured following challenge with a bronchoconstricting agent such as methacholine and analysed using whole body plethysmography. Pulmonary plethysmography is used to measure the functional residual capacity (FRC) of the lungs—the volume in the lungs when the muscles of respiration are relaxed—and total lung capacity. The degree of bronchochonstriction (BHR) can be expressed as enhanced pause (Pen H), a calculated value which correlates with measurement of airway resistance, impedance and intrapleural pressure in the same mouse.
Pen H is calculated from the relationship Pen H=(Te/Tr−1)×(Pef/Pif) where;
(§2) Groups of 8 BALB/c mice aged between 5 and 8 weeks of age were sensitised by i.p. (intraperitoneal) injection with ovalalbumin (OVA) in alum on days 0 and 14 (except Group A). All animals were challenged by aerosol exposure to 5% OVA for 20 minutes daily from days 18 to 23. Treatments were given by oral gavage twice daily from day 14 to day 24. At termination (day 24), all animals were subjected to unrestrained whole body plethysmography (whole-body plethysmograph Buxco Electronics, Troy, US) during exposure to increasing doses of methacholine leading to bronchoconstriction and hyper-responsiveness. These changes can be measured using the Buxco software to determine the PenH values for each animal. BAL fluids were collected and cytospins prepared and counted differentially for the presence of infiltrating cells. The supernatant from the BAL was retained and stored at ^−80° C. for possible cytokine analysis. […]

OVA-sensitised mice [2] = experiment: Lung histopathology scores (pulmonary inflammation), chicken ovalbumin parenteral sensitization model of asthma; conditions: 1 to 20 mg/kg twice daily oral gavage; probable dose-effect
Procedure: Groups of 8 BALB/c mice aged between 5 and 8 weeks of age were sensitised by i.p. (intraperitoneal) injection with ovalalbumin (OVA) in alum on days 0 and 14 (except Group A). All animals were challenged by aerosol exposure to 5% OVA for 20 minutes daily from days 18 to 23. Treatments were given by oral gavage twice daily from day 14 to day 24. At termination (day 24), all animals were subjected to unrestrained whole body plethysmography (whole-body plethysmograph Buxco Electronics, Troy, US) during exposure to increasing doses of methacholine leading to bronchoconstriction and hyper-responsiveness. These changes can be measured using the Buxco software to determine the PenH values for each animal. BAL fluids were collected and cytospins prepared and counted differentially for the presence of infiltrating cells. The supernatant from the BAL was retained and stored at ^−80° C. for possible cytokine analysis. Further, lungs were removed and placed in 10% buffered formalin for possible histopathology. […] The HE-stained sections were assessed for lung inflammation. Each lung was scored as described below. Samples were scored in blinded fashion, without knowledge of the experimental protocol or identity of groups. A semi-quantitative grading system was used to describe the degree of inflammatory change in the lungs. Descriptive comments (nature of cellular infiltration) were also recorded. […]

OVA-sensitised mice [3] = experiment: Differential cell counts in bronchial lavage fluid (BAL), chicken ovalbumin parenteral sensitization model of asthma
From the text: as §1
In addition, allergy can by analysed by examination of changes in the lung and lung fluid. This can be achieved by histopathological analysis of lung tissue and analysis of the cellular infiltrate in bronchial lavage fluid (BAL). Further, additional markers of allergy such as the presence of cytokines associated with allergy, IL-4 and IL-13 can be analysed in the BAL fluid.
as §2
Mice were terminated by i.p. injection of euthatal, the trachea exposed and cells obtained from the lungs by performing bronchoalveolar lavage, 3×0.4 ml with PBS. The lavage was pooled, cells counted using a nucleocounter, pelletted and resuspended at 5×10^5 cells per ml. […]
A minimum of 5 areas were counted on each slide. Each cell type was counted and percentage cell numbers determined From this the number of cells/BAL was determined.

[4] = across 1, 10 and 20 mg/kg twice daily oral gavage, day 14-24
[5] = highest dose, 20 mg/kg twice daily oral gavage (Group E)
[6] = two lower doses (1 and 10 mg/kg twice daily oral gavage, Groups C and D)

With `COc1cc2c(cc1OC)[C@H]1C[C@H](O)[C@@H](CC(C)C)CN1CC2` (single isomer, unassigned) [Isomer B] the “PenH response to methacholine” value (OVA-sensitised mice [1]; [4]) was “dose dependent effect”, the “airway hyper-responsiveness (PenH)” value (OVA-sensitised mice [1]; [5]) was “reduced airway hyper-responsiveness to levels just above those of the budesonide controls” and the “PenH response to methacholine” value (OVA-sensitised mice [1]; [6]) was “no clear difference between treated and untreated animals”. For the same compound, the “lung pathology (mean group histopathological score)” value (OVA-sensitised mice [2]) was “significant amelioration of pathology”, the “levels of eosinophil infiltration into the lung” value (OVA-sensitised mice [3]; [4]) was “dose dependent effect” and the “effect on lung cell infiltration” value (OVA-sensitised mice [3]; [5]) was “small”. For the same compound, the “eosinophil numbers in the BAL” value (OVA-sensitised mice [3]; [5]) was “associated reduction in eosinophil numbers in the BAL” and the “levels of eosinophil infiltration into the lung” value (OVA-sensitised mice [3]; [6]) was “no clear difference between treated and untreated animals”.
